Tests used:
[1] = system: E. coli DH5αZ1+pZE24-Tet50; assay: Checkerboard FICI, E. coli DH5αZ1+pZE24-Tet50; format: cell-based; conditions: combination with Tetracycline
M. smegmatis mc^2155 = assay: Checkerboard FICI, M. smegmatis mc^2155 expressing TetX-HA; format: cell-based; conditions: combination with Tetracycline
E. coli DH5αZ1 = assay: Checkerboard FICI, E. coli DH5αZ1; format: cell-based
E. coli DH5αZ1+pZE24 = assay: Checkerboard FICI, E. coli DH5αZ1+pZE24; format: cell-based; conditions: combination with Tetracycline; E. coli DH5αZ1+pZE24 (empty vector)
[2] = system: E. coli DH5αZ1+pZE24-TetX7; assay: Checkerboard FICI, E. coli DH5αZ1+pZE24-TetX7; format: cell-based; conditions: combination with Tetracycline
P. aeruginosa PA 27853 = assay: Checkerboard FICI, P. aeruginosa PA 27853; format: cell-based
[3] = system: E. coli DH5αZ1 expressing TetX7 or Tet50 from pZE24 plasmid; assay: MIC by microbroth dilution, inhibitor alone or with fixed 8 μg/mL TC; format: cell-based; conditions: fixed TC concentration of 8 μg/mL; inhibitor concentration needed to rescue TC activity
P. aeruginosa Pa-3 = assay: Checkerboard FICI, P. aeruginosa Pa-3; format: cell-based
TetX7 = TetX7 (Pseudomonas aeruginosa, UniProt Q7X2A0); assay: Apparent steady-state kinetics of NADPH consumption; format: biochemical; conditions: increasing inhibitor concentration, A340
[4] = system: E. coli DH5αZ1 expressing TetX7 or Tet50 from pZE24 plasmid; conditions: E. coli expressing TetX7 and Tet50; cited from earlier work
Tet50 = target: T1, Tet50 (Unknown prokaryotic organism, UniProt A0A059WYP6); conditions: Tet(50); cited from earlier work
T1 sequence (A0A059WYP6 1-388): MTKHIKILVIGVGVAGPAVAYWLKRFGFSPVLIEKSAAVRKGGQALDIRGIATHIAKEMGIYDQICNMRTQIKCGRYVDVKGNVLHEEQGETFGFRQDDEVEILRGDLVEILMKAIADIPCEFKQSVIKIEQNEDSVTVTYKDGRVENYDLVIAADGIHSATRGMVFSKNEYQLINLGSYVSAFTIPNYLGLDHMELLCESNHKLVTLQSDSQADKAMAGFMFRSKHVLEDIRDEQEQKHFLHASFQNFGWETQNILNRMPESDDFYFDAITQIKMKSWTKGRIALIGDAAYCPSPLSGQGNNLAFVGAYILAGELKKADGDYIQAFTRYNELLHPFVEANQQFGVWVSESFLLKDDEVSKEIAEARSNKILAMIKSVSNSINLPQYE

human red blood cells = format: cell-based; conditions: concentrations up to 500 μM (~250 μg/mL); 1 hour at 37 °C
[5] = format: in vitro ADME; conditions: E. coli cell lysate, 37 °C; LC-MS (A405 for acetate control)
[6] = combination with Tetracycline, P. aeruginosa PA 27853
[7] = combination with Tetracycline, P. aeruginosa PA 27853 (control lacking TetX7)
[8] = combination with Tigecycline, P. aeruginosa PA 27853

TetX7, sequence (Q7X2A0 1-378): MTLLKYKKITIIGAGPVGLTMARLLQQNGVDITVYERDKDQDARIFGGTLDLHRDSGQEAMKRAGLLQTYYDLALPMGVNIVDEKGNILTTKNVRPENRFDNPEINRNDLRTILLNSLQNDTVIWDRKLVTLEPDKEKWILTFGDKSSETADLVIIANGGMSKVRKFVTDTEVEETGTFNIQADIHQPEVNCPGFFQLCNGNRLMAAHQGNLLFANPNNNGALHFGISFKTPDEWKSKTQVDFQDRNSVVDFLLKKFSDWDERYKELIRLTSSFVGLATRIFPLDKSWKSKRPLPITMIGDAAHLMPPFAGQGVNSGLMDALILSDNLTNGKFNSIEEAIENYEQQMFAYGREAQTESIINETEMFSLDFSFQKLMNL

SMILES | Effect [1] | FICI [1] | Effect (M. smegmatis mc^2155) | FICI (M. smegmatis mc^2155) | Effect (E. coli DH5αZ1; combination with Tetracycline) | Effect (E. coli DH5αZ1; combination with Tigecycline) | FICI (E. coli DH5αZ1; combination with Tigecycline) | Effect (E. coli DH5αZ1+pZE24) | FICI (E. coli DH5αZ1+pZE24) | Effect [2] | FICI [2] | Effect (P. aeruginosa PA 27853; [6]) | FICI (P. aeruginosa PA 27853; [7]) | Effect (P. aeruginosa PA 27853; [8]) | FICI (P. aeruginosa PA 27853; [8]) | MIC of inhibitor combined with TC [3] [µg/mL] | Effect (P. aeruginosa Pa-3; combination with Tetracycline) | Effect (P. aeruginosa Pa-3; combination with Tigecycline) | FICI (E. coli DH5αZ1; combination with Tetracycline) | also measured
Cc1c2c(c(O)c3c(OC(=O)c4ccccn4)cccc13)C(=O)[C@]1(O)C(=O)C(C(N)=O)=C(O)[C@@H](N(C)C)[C@@H]1C2 [Inhibitor 7] | Additive | 0.625 | Additive/Indifferent | 0.75–1 | Additive | Indifferent | >1 | Indifferent | 1.125 | Additive | 0.625 | Indifferent | >1 | Indifferent | >1 | 2 | Indifferent | Synergetic | – | –
Cc1c2c(c(O)c3c(OC(=O)c4cccnc4)cccc13)C(=O)[C@]1(O)C(=O)C(C(N)=O)=C(O)[C@@H](N(C)C)[C@@H]1C2 [Inhibitor 8] | Synergetic | 0.265 | Additive/Indifferent | 0.75–1 | Indifferent | Indifferent | >1 | Indifferent | 1 | Synergetic | 0.375 | Indifferent | >1 | Indifferent | >1 | 4 | Indifferent | Additive | >1 | Vmax of NADPH consumption (TetX7): 0.05 ± 0.02 min⁻¹
CN(C)[C@@H]1C(O)=C(C(N)=O)C(=O)[C@@]2(O)C(O)=C3C(=O)c4c(O)cccc4[C@@](C)(O)[C@H]3C[C@@H]12 [TC, tetracycline] | – | – | – | – | – | – | – | – | – | – | – | – | – | – | – | – | – | – | – | MIC of TC [4]: > 8 µg/mL
Cc1c2c(c(O)c3c(O)cccc13)C(=O)[C@]1(O)C(=O)C(C(N)=O)=C(O)[C@@H](N(C)C)[C@@H]1C2 [aTC, anhydrotetracycline, reference compound] | – | – | Indifferent | 1 | Indifferent | Indifferent | >1 | – | – | – | – | Additive | – | Additive | – | – | Synergetic | Synergetic | >1 | Kapp of NADPH consumption (Tet50): 2.0 ± 0.3 µM; Hemolysis (human red blood cells): No hemolysis
CC(=O)Oc1ccc([N+](=O)[O-])cc1 [p-NO2-phenyl acetate] | – | – | – | – | – | – | – | – | – | – | – | – | – | – | – | – | – | – | – | Stability toward hydrolysis in cell lysate [5]: time- and lysate-dependent increase in A405

— PMC11915366 (ACS infectious diseases, 2025)
